What was measured:
Type in all cases: cell-based
[1] = test system: Saccharomyces cerevisiae CBS 8803; experiment: Poison plate assay (MIC and synergy index), Saccharomyces cerevisiae; conditions: ppm total active ingredient, half strength potato dextrose broth, 28° C., evaluation 7 days after inoculation
Source text: wherein: • QA is the concentration of compound A in ppm, acting alone, which produced an end point (e.g. MIC), • Qa is the concentration of compound A in ppm, in the mixture, which produced an end point (e.g. MIC), • QB is the concentration of compound B in ppm, acting alone, which produced an end point (e.g. MIC), • Qb is the concentration of compound B in ppm, in the mixture, which produced an end point (e.g. MIC).
When the Synergy Index is greater than 1.0, antagonism is indicated. When the SI is equal to 1.0, additivity is indicated.

[2] = test system: Escherichia coli LMG 8063; experiment: Poison plate assay (MIC and synergy index), Escherichia coli; conditions: ppm total active ingredient, nutrient broth pH 6.8, 28° C., evaluation 7 days after inoculation
Source text: (§1) Experiment 1: Poison Plate Assay
(§2) In the test combinations above, product A is component (I), i.e. zinc pyrithione, and product B is a component (II), i.e. either sodium sulfite (II-a) or lysozyme (II-b).
(§3) Concentration series of total actives: a series of 24 concentrations increasing with steps of ⅓:0.27-0.35-0.47-0.63-0.84-1.13-1.50-2.00-2.67-3.56-4.75-6.33-8.44-11.25-15.00-20.00-26.70-35.60-47.46-63.28-84.38-112.50-150.00-200.00 ppm. • Culture medium: bacteria: nutrient broth (3 g beef extract and 5 g peptone in 1 liter deionised water, pH=6.8.) • Experimental set up: 96-well plates containing 300 μl pf inoculum plus 0.75 μl of a 400× concentrated stock solution of the test compounds per well. • Species of test organisms: Escherichia coli LMG 8063 • Staphylococcus aureus LMG 8195/ATCC 6538P • Inoculum: the nutrient medium is inoculated with an actively growing liquid culture of the test bacteria. • Culture conditions: 28° C., 70% relative humidity, incubation in darkness. • Evaluation: 7 days after inoculation. […]

[3] = test system: Staphylococcus aureus LMG 8195/ATCC 6538P; experiment: Poison plate assay (MIC and synergy index), Staphylococcus aureus; conditions: ppm total active ingredient, nutrient broth pH 6.8, 28° C., evaluation 7 days after inoculation
Source text: as §1, §2, §3

O=S([O-])O.[Na+] [sodium bisulfite]
MIC-values in ppm (minimum inhibitory concentration) [1]: 267 ppm

O=S([O-])[O-].[Na+].[Na+] [sodium sulfite]
MIC-values in ppm (minimum inhibitory concentration) [2]: 267 ppm

[O-][n+]1ccccc1[S][Zn][S]c1cccc[n+]1[O-] [zinc pyrithione, bis(2-pyridylthio)zinc 1,1′dioxide]
MIC-values in ppm (minimum inhibitory concentration) [2]: 3.60 ppm
MIC-values in ppm (minimum inhibitory concentration) [3]: 2.00 ppm
MIC-values in ppm (minimum inhibitory concentration) [1]: 2.00 ppm

lysozyme
MIC-values in ppm (minimum inhibitory concentration) [3]: 267 ppm

Source: US20180168157A1, “ANTIMICROBIAL COMPOSITIONS COMPRISING FOOD APPROVED ANTIMICROBIALS AND ZINC PYRITHIONE” (Janssen Pharmaceutica NV, priority 2015, published 2018)
